pIC50: −log10 of the molar value. Like-named read-outs stand apart in the source and are kept apart here.
Columns and labels:
[1] = system: hepatitis B surface antigen (HBsAg); assay: Determination of hepatitis B surface antigen (HBsAg) in HepG2.2.15 cell supernatant; format: cell-based, hepatitis B virus (HepG2.2.15 cells); details: Hepatitis B virus, HepG2.2.15, 96 h, read-out: HBsAg inhibitory activity IC50
Experimental: (§1) The full genome of HBV was inserted into an […] cell, which could therefore express HBV continuously (Sells et al, Proc Natl Acad Sci USA. 1987 February; 84 (4):1005-9). The culture condition was DMEM medium containing 10% serum and […] G418. Cells were placed in an incubator containing 5% CO2 and cultured at 37° C.
HepG2.2.15 cells were seeded into a 96-well culture plate at a density of 3×10^4 cells/well. On the next day, the drug dissolved in DMSO was subjected to a 5-fold dilution and then added to the cells. 0.5% DMSO was added separately as control. The supernatant was collected after 4 days of drug action, and the content of hepatitis B surface antigen was determined.
The determination of hepatitis B surface antigen was carried out by using a kit for quantitative determination of hepatitis B virus surface antigen (chemiluminescence method). The specific operations were as follows. 50 μL cell culture supernatant was taken and transferred to the assay plate. 50 μL of enzyme-linked reagent was added thereto and the assay plate was sealed. Incubation was carried out at room temperature for 1 hour. Afterwards, the assay plate was washed six times with PBS, and finally, the residual liquid was removed by shaking the plate. 25 μL of substrates A and B were added respectively, and the determination was conducted by using a microplate reader (Tecan Infinite® F200) after ten minutes of reaction. IC50 was calculated after fitting the dose-response curve.

HBV DNA = assay: Determination of HBV DNA in HepG2.2.15 cell supernatant by qPCR; format: cell-based, hepatitis B virus (HepG2.2.15 cells); details: Hepatitis B virus, 168 h, HepG2.2.15 cells, supernatant after a total of 7 days of drug action, read-out: Inhibitory activity against HBV DNA IC50
Experimental: as §1
HepG2.2.15 cells were seeded into a 96-well culture plate at a density of 4×10^4 cells/well. After 4 hours, the drug dissolved in DMSO was subjected to a 4-fold dilution and then added to cells. 0.5% DMSO was added separately as control. On the 4th day of drug action, the original supernatant was removed and then the drug was added thereto again. The supernatant was collected after a total of 7 days of drug action and treated with lysis buffer. The determination of hepatitis B DNA was carried out by real-time fluorescence-based quantitative polymerase chain reaction (qPCR). After the completion of the qPCR, data were exported from the instrument and analyzed, and IC50 indicating antiviral activity was calculated after fitting the dose-response curve.

[2] = Pharmacokinetic experiments in ICR mice (plasma); format: in vivo; details: for AUC(0-t): read-out: AUC0-12
Experimental: Multiple compounds in the Examples of the present disclosure were administered to ICR mice to conduct pharmacokinetic experiments. A single intravenous injection (with a dose of 2 mg/kg) and a single oral administration (with a dose of 10 mg/kg) were administered respectively. Blood was respectively collected prior to administration and 5 minutes, 15 minutes, 30 minutes, 1 hour, 2 hours, 4 hours, 8 hours, 12 hours and 24 hours after administration, and the concentration of the test compound in plasma was determined. Plasma pharmacokinetic data of the control compound (obtained from Example 28 in patent WO2018130152 A1) and the compounds of Examples 10 and 19 in the present disclosure in mice were as shown in the following Table 5 to Table 7.

[3] = mouse, single intravenous injection 2 mg/kg, plasma
[4] = mouse, single oral administration 10 mg/kg, plasma

`COc1cc2c(cc1-c1cnc(COC3CC3)s1)CC(C(C)(C)C)n1cc(C(=O)O)c(=O)cc1-2` (stereo not shown) [Example 24, 6-tert-butyl-9-[2-(cyclopropoxymethyl)thiazol-5-yl]-10-methoxy-2-oxo-6,7-dihydro-2H-pyrido[2,1-a] isoquinoline-3-carboxylic Acid] gave a pIC50 [1] of 9.70 and a pIC50 (HBV DNA) of 9.35.

Work on `CCOc1ncc(-c2cc3c(cc2OC)-c2cc(=O)c(C(=O)O)cn2C(C(C)(C)C)C3)s1` (stereo not shown) [Example 13, 6-tert-butyl-9-[2-(ethoxy)thiazol-5-yl]-10-methoxy-2-oxo-6,7-dihydro-2H-pyrido[2,1-a]isoquinoline-3-carboxylic Acid] yielded a pIC50 [1] of 9.70 and a pIC50 (HBV DNA) of 9.51.

Molecule `COc1cc2c(cc1-c1cnc(N3CCOCC3)s1)CC(C(C)(C)C)n1cc(C(=O)O)c(=O)cc1-2` (stereo not shown) [Example 5, 6-tert-butyl-10-methoxy-9-(2-morpholinothiazol-5-yl)-2-oxo-6,7-dihydro-2H-pyrido[2,1-a]isoquinoline-3-carboxylic Acid] has a pIC50 [1] of 9.52.

Work on `CCNC(=O)c1ncc(-c2cc3c(cc2OC)-c2cc(=O)c(C(=O)O)cn2C(C(C)(C)C)C3)s1` (stereo not shown) [Example 20, 6-tert-butyl-9-[2-(ethylcarbamoyl)thiazol-5-yl]-10-methoxy-2-oxo-6,7-dihydro-2H-pyrido[2,1-a]isoquinoline-3-carboxylic Acid] yielded a pIC50 [1] of 9.52.

`COc1cc2c(cc1-c1cnc(C3CC(OC)C3)s1)CC(C(C)(C)C)n1cc(C(=O)O)c(=O)cc1-2` (stereo not shown) [Example 27, 6-tert-butyl-10-methoxy-9-[2-(3-methoxycyclobutyl)thiazol-5-yl]-2-oxo-6,7-dihydro-2H-pyrido[2,1-a]isoquinoline-3-carboxylic Acid] gave a pIC50 [1] of 10.00.

For `CCCc1ncc(-c2cc3c(cc2OC)-c2cc(=O)c(C(=O)O)cn2C(C(C)(C)C)C3)s1` (stereo not shown) [Example 18, 6-tert-butyl-10-methoxy-2-oxo-9-(2-propylthiazol-5-yl)-6,7-dihydro-2H-pyrido[2,1-a]isoquinoline-3-carboxylic Acid], the pIC50 [1] was 10.05 and the pIC50 (HBV DNA) was 10.22.

In the case of `COc1cc2c(cc1-c1cnc(N3CCC(OC)CC3)s1)CC(C(C)(C)C)n1cc(C(=O)O)c(=O)cc1-2` (stereo not shown) [Example 8, 6-tert-butyl-10-methoxy-9-[2-(4-methoxypiperidin-1-yl)thiazol-5-yl]-2-oxo-6,7-dihydro-2H-pyrido[2,1-a]isoquinoline-3-carboxylic Acid], the pIC50 [1] was 9.70.

In the case of `COc1ncc(-c2cc3c(cc2OC)-c2cc(=O)c(C(=O)O)cn2C(C(C)(C)C)C3)s1` (stereo not shown) [Example 12, 6-tert-butyl-10-methoxy-9-(2-methoxythiazol-5-yl)-2-oxo-6,7-dihydro-2H-pyrido[2,1-a]isoquinoline-3-carboxylic Acid], the pIC50 [1] was 9.35.

Molecule `COCCNC(=O)c1ncc(-c2cc3c(cc2OC)-c2cc(=O)c(C(=O)O)cn2C(C(C)(C)C)C3)s1` (stereo not shown) [Example 22, 6-tert-butyl-10-methoxy-9-{2-[(2-methoxyethyl)carbamoyl]thiazol-5-yl}-2-oxo-6,7-dihydro-2H-pyrido[2,1-a]isoquinoline-3-carboxylic Acid] has a pIC50 [1] of 9.40.

With `COc1cc2c(cc1-c1cnc(C3CC(F)C3)s1)CC(C(C)(C)C)n1cc(C(=O)O)c(=O)cc1-2` (stereo not shown) [Example 26, 6-tert-butyl-9-[2-(3-fluorocyclobutyl)thiazol-5-yl]-10-methoxy-2-oxo-6,7-dihydro-2H-pyrido[2,1-a]isoquinoline-3-carboxylic Acid] the pIC50 [1] was 10.00.

With `COc1cc2c(cc1-c1cnc(N3CC(F)(F)C3)s1)CC(C(C)(C)C)n1cc(C(=O)O)c(=O)cc1-2` (stereo not shown) [Example 4, 6-tert-butyl-9-[2-(3,3-difluoroazetidin-1-yl)thiazol-5-yl]-10-methoxy-2-oxo-6,7-dihydro-2H-pyrido[2,1-a]isoquinoline-3-carboxylic Acid] the pIC50 [1] was 10.35 and the pIC50 (HBV DNA) was 9.59.

In the case of `COc1cc2c(cc1-c1cnc(C3CC(F)(F)C3)s1)CC(C(C)(C)C)n1cc(C(=O)O)c(=O)cc1-2` (stereo not shown) [Example 25, 6-tert-butyl-9-[2-(3,3-difluorocyclobutyl)thiazol-5-yl]-10-methoxy-2-oxo-6,7-dihydro-2H-pyrido[2,1-a]isoquinoline-3-carboxylic Acid], the pIC50 [1] was 9.62.

In the case of `CNC(=O)c1ncc(-c2cc3c(cc2OC)-c2cc(=O)c(C(=O)O)cn2C(C(C)(C)C)C3)s1` (stereo not shown) [Example 19, 6-tert-butyl-10-methoxy-9-[2-(methylcarbamoyl)thiazol-5-yl]-2-oxo-6,7-dihydro-2H-pyrido[2,1-a]isoquinoline-3-carboxylic Acid], the pIC50 [1] was 9.52, the bioavailability ([2]; mouse, plasma, oral 10 mg/kg vs intravenous 2 mg/kg, read-out: F (bioavailability)) was 87% and the AUC(0-inf) [2, 3] was 1210 ng·h/mL. The Cmax [2, 3] was 1020 ng/mL, the Tmax [2, 3] was 4.8 min and the clearance [2, 3] was 27.6 mL/min/kg. For the same molecule, the half-life [2, 3] was 78 min, the AUC(0-t) [2, 3] was 1200 ng·h/mL and the Vd ([2]; mouse, single intravenous injection 2 mg/kg, plasma, read-out: Vss) was 2.27 L/kg. The AUC(0-inf) [2, 4] was 5290 ng·h/mL, the Cmax [2, 4] was 2420 ng/mL and the Tmax [2, 4] was 30 min. For the same molecule, the half-life [2, 4] was 150 min, the AUC(0-t) [2, 4] was 5210 ng·h/mL and the “plasma exposure compared with the control compound” value ([2]; same dose, after intravenous injection and oral administration) was “significantly higher”.

With `COc1cc2c(cc1-c1cnc(N3CC(OC)C3)s1)CC(C(C)(C)C)n1cc(C(=O)O)c(=O)cc1-2` (stereo not shown) [Example 9, 6-tert-butyl-10-methoxy-9-[2-(3-methoxyazetidin-1-yl)thiazol-5-yl]-2-oxo-6,7-dihydro-2H-pyrido[2,1-a]isoquinoline-3-carboxylic Acid] the pIC50 [1] was 10.52 and the pIC50 (HBV DNA) was 10.00.

`CCOCc1ncc(-c2cc3c(cc2OC)-c2cc(=O)c(C(=O)O)cn2C(C(C)(C)C)C3)s1` (stereo not shown) [Example 14, 6-tert-butyl-9-[2-(ethoxymethyl)thiazol-5-yl]-10-methoxy-2-oxo-6,7-dihydro-2H-pyrido[2,1-a]isoquinoline-3-carboxylic Acid] showed a pIC50 [1] of 9.70.

Work on `COc1cc2c(cc1-c1cnc(N3CCC(O)CC3)s1)CC(C(C)(C)C)n1cc(C(=O)O)c(=O)cc1-2` (stereo not shown) [Example 1, 6-tert-butyl-9-[2-(4-hydroxypiperidin-1-yl)thiazol-5-yl]-10-methoxy-2-oxo-6,7-dihydro-2H-pyrido[2,1-a]isoquinoline-3-carboxylic Acid] yielded a pIC50 [1] of 9.48.

With `COc1cc2c(cc1-c1cnc(C(C)(C)OC)s1)CC(C(C)(C)C)n1cc(C(=O)O)c(=O)cc1-2` (stereo not shown) [Example 17, 6-tert-butyl-10-methoxy-9-[2-(2-methoxypropan-2-yl)thiazol-5-yl]-2-oxo-6,7-dihydro-2H-pyrido[2,1-a]isoquinoline-3-carboxylic Acid] the pIC50 [1] was 9.52.

In the case of `COc1cc2c(cc1-c1cnc(N(C)C)s1)CC(C(C)(C)C)n1cc(C(=O)O)c(=O)cc1-2` (stereo not shown) [Example 6, 6-tert-butyl-9-[2-(dimethylamino)thiazol-5-yl]-10-methoxy-2-oxo-6,7-dihydro-2H-pyrido[2,1-a]isoquinoline-3-carboxylic Acid], the pIC50 [1] was 9.52.

`COc1cc2c(cc1-c1cnc(N3CCC3)s1)CC(C(C)(C)C)n1cc(C(=O)O)c(=O)cc1-2` (stereo not shown) [Example 3, 9-[2-(azetidin-1-yl)thiazol-5-yl]-6-tert-butyl-10-methoxy-2-oxo-6,7-dihydro-2H-pyrido[2,1-a]isoquinoline-3-carboxylic Acid] showed a pIC50 [1] of 10.15.

With `COCCOc1ncc(-c2cc3c(cc2OC)-c2cc(=O)c(C(=O)O)cn2C(C(C)(C)C)C3)s1` (stereo not shown) [Example 21, 6-tert-butyl-10-methoxy-9-[2-(2-methoxyethoxy)thiazol-5-yl]-2-oxo-6,7-dihydro-2H-pyrido[2,1-a]isoquinoline-3-carboxylic Acid] the pIC50 [1] was 9.52.

Molecule `COc1cc2c(cc1-c1cnc(C(C)OC)s1)CC(C(C)(C)C)n1cc(C(=O)O)c(=O)cc1-2` (stereo not shown) [Example 15, 6-tert-butyl-10-methoxy-9-[2-(1-methoxyethyl)thiazol-5-yl]-2-oxo-6,7-dihydro-2H-pyrido[2,1-a]isoquinoline-3-carboxylic Acid] has a pIC50 [1] of 9.70.

Source: patent publication US20220081434A1, “DIHYDROISOQUINOLINE COMPOUND” (SUZHOU ARK BIOPHARMACEUTICAL CO., LTD., priority 2019, published 2022)
